Results on one compound are retold here after patent publication US9429582B2, “Tyrosine-phosphorylated WBP2, a novel cancer target and biomarker” (National University of Singapore, priority 2010, dated 2016).

Entries after “also recorded” stand apart in the source; their conditions may differ.

What all share (type): cell-based, human
One test deals with vector-expressing MCF7. The test is described as follows: Cell proliferation (MTS / cell numbers) of vector-expressing MCF7. As to the method:
(§1) A: Whole cell lysates from vector, WBP2-WT, WBP2-Y192-231E mutant and WBP2-Y192-231F mutant expressing MCF7 or Y192-231E mutant expressing MCF7 with WBP2 knockdown were used for IB analysis with antibodies indicated. B: Vector, WBP2-WT, WBP2-Y192-231E mutant or WBP2-Y192-231F mutant-expressing MCF7 were co-transfected with TOPFlash (top panel) or ERE-Luciferase (bottom panel) reporter construct. For cells co-transfected ERE-luciferase, they were either left alone or stimulated with 50 ng/ml Wnt3a ligand for 16 hrs. TCF/ERα luciferase activities in various conditions were then assayed. **P<0.01, ***P<0.001, Student's t-test (2-tailed). C: Vector or WBP2-Y192-231E mutant-expressing MCF7 were treated with indicated concentrations of Tamoxifen(Tam) and/or FH535. Cell numbers were measured. D: Whole cell lysates from WBP2-Y192-231E mutant-expressing MCF7 treated with 2 μM Tam and/or 15 μM FH5353 were harvested at day 2-4 post-treatment and used for IB analysis with antibodies indicated.
Whole cell lysates from vector, WBP2-WT, WBP2-Y192-231E mutant and WBP2-Y192-231F mutant expressing MCF7 (A) or Y192-231E mutant expressing MCF7 with WBP2 knockdown (B) were used for IB analysis with antibodies indicated. Their expression levels were quantified in three independent experiments and the averages were presented relative to actin. Representative blots (order in lanes from left to right: vector, WBP2, Y192-231E, Y192F) were presented as insets to the bar graphs. **P<0.01, ***P<0.001, Student's t-test (2-tailed) relative to vector. […] TCF(C)/ER[…](D) luciferase activities in various conditions were then assayed and analyzed in relative to untreated vector control. **P<0.01, ***P<0.001, Student's t-test (2-tailed). […] Cell numbers were measured daily and compared in relative to vehicle treated vector-expressing cells on Day 0. […] Cell numbers were measured and compared in relative to vehicle-treated cells. Their […] were analyzed statistically with SPSS 13.0. […] Cell numbers were measured on day 2 and day 4 and compared in relative to vehicle-treated control at each day (Top Panel). […]

Another test relates to ERα. The test is described as follows: Immunoblot of ERα expression in drug-treated WBP2-Y192-231E mutant-expressing MCF7. The conditions noted are these: Y192-231E-expressing MCF7; 2 μM Tam and/or 15 μM FH535; day 2-4 post-treatment. As to the method:
For cells co-transfected ERE-luciferase, they were either left alone or stimulated with 50 ng/ml Wnt3a ligand for 16 hrs. TCF/ERα luciferase activities in various conditions were then assayed. **P<0.01, ***P<0.001, Student's t-test (2-tailed). […] Cell numbers were measured.
Their expression levels were quantified in three independent experiments and the averages were presented relative to actin. […] For cells co-transfected ERE luciferase, they were either left alone or stimulated with 50 ng/ml Wnt3a ligand for 16 hrs. TCF(C)/ER[…](D) luciferase activities in various conditions were then assayed and analyzed in relative to untreated vector control. **P<0.01, ***P<0.001, Student's t-test (2-tailed). […] Cell numbers were measured daily and compared in relative to vehicle treated vector-expressing cells on Day 0. […] Cell numbers were measured and compared in relative to vehicle-treated cells. […] Cell numbers were measured on day 2 and day 4 and compared in relative to vehicle-treated control at each day (Top Panel). These treated cells were harvested for IB analysis with antibodies indicated (Bottom Panel).
First, we exposed WBP2 phospho-mimic expressing MCF7 cells to serial concentrations of fulvestrant (0.1 nM, 1 nM, 10 nM, 100 nM and 1 μM) and probed for ERα expression to determine the effective working concentration. […] Next, we compared the growth and proliferation of WBP2 phospho-mimic mutant expressing MCF7 in the presence of 100 nM fulvestrant or 15 μM FH535.

For the next test, the system named is WBP2. The test is described as follows: Immunoblot of WBP2 expression in drug-treated WBP2-Y192-231E mutant-expressing MCF7. To be noted: Y192-231E-expressing MCF7; 15 μM FH535; day 2-4 post-treatment. The procedure:
as §1, with “C: Vector or WBP2-Y192-231E mutant-expressing MCF7 were treated with indicated concentrations of Tamoxifen(Tam) and/or FH535.” left out, “D: Whole cell lysates from WBP2-Y192-231E mutant-expressing MCF7 treated with 2 μM Tam and/or 15 μM FH5353 were harvested at day 2-4 post-treatment and used for IB analysis with antibodies indicated.” left out
Whole cell lysates from vector, WBP2-WT, WBP2-Y192-231E mutant and WBP2-Y192-231F mutant expressing MCF7 (A) or Y192-231E mutant expressing MCF7 with WBP2 knockdown (B) were used for IB analysis with antibodies indicated. Their expression levels were quantified in three independent experiments and the averages were presented relative to actin. […] TCF(C)/ER[…](D) luciferase activities in various conditions were then assayed and analyzed in relative to untreated vector control. **P<0.01, ***P<0.001, Student's t-test (2-tailed). […] Cell numbers were measured daily and compared in relative to vehicle treated vector-expressing cells on Day 0. […] Cell numbers were measured and compared in relative to vehicle-treated cells. […]

With `Cc1cc([N+](=O)[O-])ccc1NS(=O)(=O)c1cc(Cl)ccc1Cl` [FH535], in the test with vector-expressing MCF7 (MCF7 cells expressing vector, day 4, 100 nM fulvestrant or 15 μM FH535), the “inhibition of growth / reduction of proliferation” value is recorded as “about 30%”. Further, in the test with vector-expressing MCF7 (vector stable transfectant, 0-50 μM FH535 for 2 days), the “growth inhibition, dose dependence” value is “dose dependent growth inhibition”. Moreover, the ERα expression entry with ERα is reported as “significantly reduced; also recorded: reducing”. For the same compound, the WBP2 expression result with WBP2 is reported as “without affecting”.
